Earlier results, collected in patent EP0858808B1, “Peptides for use in wound treatment” (Johnson & Johnson Medical Ltd., priority 1997, dated 2003).

Test system: human fibroblast
Conditions: concentration range 2.5 mM to 25 mM

Q: Which chemotactic activity does the source give for Gly-Pro-Ala here?
A: Its chemotactic activity is “no chemotactic activity”.
